Key:
SGC-7901 = experiment: MTT cell viability assay, SGC-7901; type: cell-based; conditions: Homo sapiens, 24 h incubation, mean ± SD, n = 4
Protocol: (§1) The synthesized compounds were subjected to a cytotoxicity assay using the MTT method, as described previously. IC50 is defined as the drug concentration causing a 50% reduction in cell numbers compared to the untreated control. For screening, we evaluated the effects of the compounds on the growth of three cancer cell lines (A549, SGC-7901, and HeLa). In addition, their toxicities were tested using one normal cell line (L-02). The results are the averages of four separate measurements. MTX and 5-FU served as positive controls.
(§2) The three cancer cell lines namely the human lung cancer cell line (A549), human cervical cancer cell line (HeLa), human gastric carcinoma cell line (SGC-7901), and normal liver cell line (L-02) were acquired from the American Type Culture Collection (Manassas, VA, USA). A549 and SGC-7901 cells were routinely cultured in RPMI-1640. In addition, HeLa and L-02 cells were routinely cultured in DMEM. Media was supplemented with 10% fetal bovine serum (FBS). Cells were maintained at subconfluency at 37 °C in humidified air containing 5% CO2. The cells were monitored daily and maintained at 80% cell density. All compounds tested were dissolved in DMSO and then diluted by the culture medium before the treatment of cultured cells.
(§3) Cytotoxicity of the tested samples was measured against each cell line using the 3-(4,5-dimethylthiazol-2-yl)-2,5-diphenyltetrazolium bromide (MTT) cell viability assay (Maher et al., 2019). Cancer cells (A549, SGC-7901, and HeLa) and L-02 normal cells were harvested during the logarithmic growth phase. All cells were seeded in 96-well plates at 10^4 cells/well and were treated with 5-fluorouracil (5-FU), methotrexate (MTX), and the tested samples for 24 h at final concentrations of […]. Next, 20 µL of freshly prepared MTT (Solarbio) solution (5 mg/mL of MTT in PBS) was added to each well, and the cells were cultured for 4 h at 37 °C. The supernatants were removed and resolved with 100 µL of DMSO, and the cells were shocked for 10 min at 37 °C. The optical density of the samples was measured at 490 nm using a microplate luminometer. Cell viability was expressed as the percentage change in absorbance compared to the control values.

A549 = experiment: MTT cell viability assay, A549; type: cell-based; conditions: Homo sapiens, 24 h incubation, mean ± SD, n = 4
Protocol: as §1, §2, §3

HeLa = experiment: MTT cell viability assay, HeLa; type: cell-based; conditions: Homo sapiens, 24 h incubation, mean ± SD, n = 4
Protocol: as §1, §2, §3

L-02 = experiment: MTT cytotoxicity in normal cell line L-02; type: cell-based; conditions: for IC50: Homo sapiens, L02, normal cell line L-02, MTT; for Selectivity Index SGC-7901: IC50 in normal cells (L-02)/IC50 in tumor cells (SGC-7901); for Selectivity Index A549: IC50 in normal cells (L-02)/IC50 in tumor cells (A549); for Selectivity Index HeLa: IC50 in normal cells (L-02)/IC50 in tumor cells (HeLa)
Protocol: as §1
The lack of selectivity between normal and cancer cells is one of the primary limitations of antitumor drugs. We evaluated the cytotoxicity of compounds 4c, 4e–4i, 4l, 4m, and 4q in the normal cell line L-02 to determine the selectivity index (defined as the ratio of cytotoxicity in L-02 cells compared to that in cancer cells). […] Compound 4q yielded satisfactory SI values in HeLa and SGC-7901 cells but an unsatisfactory SI value in A549 cells. […] Compound 4f was selected for the subsequent biological studies.
as §2, §3

| Structure (SMILES) | IC50 (SGC-7901) | melting point | IC50 (A549) | IC50 (HeLa) | IC50 (L-02) | Selectivity Index SGC-7901 (L-02) | Selectivity Index A549 (L-02) | Selectivity Index HeLa (L-02) |
| --- | --- | --- | --- | --- | --- | --- | --- | --- |
| CCCNC(=O)CCC(=O)Nc1ccc(-n2ccnc2CC)cc1 [Compound 4a, 1-(4-(3-(Propylcarbamoyl)propionamide)phenyl)-2-ethyl Imidazole] | > 100 µM | 128 to 130 °C | > 100 µM | > 100 µM |  |  |  |  |
| CCc1nccn1-c1ccc(NC(=O)CCC(=O)O)cc1 [Compound 3, 3-(4-(2-Ethyl-1H-imidazol-1-yl)phenylcarbamoyl)propanoic Acid] | > 100 µM | 163 to 165 °C | > 100 µM | > 100 µM |  |  |  |  |
| CCc1nccn1-c1ccc(NC(=O)CCC(=O)Nc2nccs2)cc1 [Compound 4s, 1-(4-(3-(Thiazolcarbamoyl)propionamide)phenyl)-2-ethyl Imidazole] | 56.3 ± 3.24 µM | 168 to 170 °C | 24 ± 3.47 µM | 14.8 ± 2.05 µM |  |  |  |  |
| CCCCNC(=O)CCC(=O)Nc1ccc(-n2ccnc2CC)cc1 [Compound 4b, 1-(4-(3-(Butylcarbamoyl)propionamide)phenyl)-2-ethyl Imidazol] | 52.5 ± 3.36 µM | 112 to 115 °C | > 100 µM | > 100 µM |  |  |  |  |
| CCc1nccn1-c1ccc(NC(=O)CCC(=O)Nc2ccc(N)cc2)cc1 [Compound 4j, 1-(4-(3-(4-amino-Phenylcarbamoyl)propionamide)phenyl)-2-ethylimidazole] | > 100 µM | 229 to 231 °C | > 100 µM | 7.42 ± 0.67 µM |  |  |  |  |
| CCc1nccn1-c1ccc(NC(=O)CCC(=O)NCc2ccccc2)cc1 [Compound 4k, 1-(4-(3-(Benzylcarbamoyl)propionamide)phenyl)-2-ethyl Imidazol] | 20.6 ± 2 µM | 123 to 126 °C | > 100 µM | 15.2 ± 1.4 µM |  |  |  |  |
| CCc1nccn1-c1ccc(NC(=O)CCC(=O)NCc2ccc(F)cc2)cc1 [Compound 4n, 1-(4-(3-(4-F-Benzylcarbamoyl)propionamide)phenyl)-2-ethylimidazole] | > 100 µM | 137 to 140 °C | > 100 µM | 9.36 ± 1.78 µM |  |  |  |  |
| CCc1nccn1-c1ccc(NC(=O)CCC(=O)Nc2ccccc2)cc1 [Compound 4d, 1-(4-(3-(Phenylcarbamoyl)propionamide)phenyl)-2-ethylimidazole] | > 100 µM | 170 to 173 °C | 86.5 ± 10.6 µM | > 100 µM |  |  |  |  |
| CCc1nccn1-c1ccc(NC(=O)CCC(=O)Nc2ccc(OC)cc2)cc1 [Compound 4i, 1-(4-(3-(4-Methoxybenzecarbamoyl)propionamide)phenyl)-2-ethyl Imidazole] | 15.5 ± 2.84 µM | 160 to 163 °C | 23.8 ± 7.16 µM | 7.01 ± 1.3 µM | 210 ± 25.5 µM | 13.55 | 8.81 | 29.89 |
| CCCCCNC(=O)CCC(=O)Nc1ccc(-n2ccnc2CC)cc1 [Compound 4c, 1-(4-(3-(Amylcarbamoyl)propionamide)phenyl)-2-ethyl Imidazole] | 18.5 ± 2.12 µM | 95 to 98 °C | 33.9 ± 2.43 µM | 28.5 ± 2.51 µM | 114 ± 8.35 µM | 6.13 | 3.35 | 3.99 |
| CCc1nccn1-c1ccc(NC(=O)CCC(=O)NCc2ccccn2)cc1 [Compound 4r, 1-(4-(3-(Pyridinemethylcarbamoyl)propionamide)phenyl)-2-ethyl Imidazole] | 41.9 ± 3.47 µM | 118 to 121 °C | > 100 µM | > 100 µM |  |  |  |  |
| CCc1nccn1-c1ccc(NC(=O)CCC(=O)NCc2ccc(OC)cc2)cc1 [Compound 4p, 1-(4-(3-(4-Methoxybenzylcarbamoyl)propanamide)phenyl)-2-ethylimidazole] | 40.3 ± 4.67 µM | 168 to 171 °C | 75.9 ± 4 µM | 25.5 ± 4.94 µM |  |  |  |  |

Further compounds by falling IC50 (SGC-7901), results first:

| IC50 (SGC-7901) | melting point | IC50 (A549) | IC50 (HeLa) | Structure (SMILES) | IC50 (L-02) | Selectivity Index SGC-7901 (L-02) | Selectivity Index A549 (L-02) | Selectivity Index HeLa (L-02) |
| --- | --- | --- | --- | --- | --- | --- | --- | --- |
| 15.2 ± 1.74 µM | 143 to 145 °C | 28.6 ± 2.51 µM | 4.07 ± 0.59 µM | CCc1nccn1-c1ccc(NC(=O)CCC(=O)NCc2ccc(Br)cc2)cc1 [Compound 4m, 1-(4-(3-(4-Br-Benzylcarbamoyl)propionamide)phenyl)-2-ethylimidazole] | 210 ± 20.3 µM | 13.85 | 7.35 | 51.59 |
| 14 ± 2.29 µM | 75 to 78 °C | 13.8 ± 1.92 µM | 16.5 ± 1.48 µM | CCc1nccn1-c1ccc(NC(=O)CCC(=O)Nc2ccc(F)cc2)cc1 [Compound 4g, 1-(4-(3-(4-F-Phenylcarbamoyl)propionamide)phenyl)-2-ethyl Imidazol] | 42.6 ± 6.37 µM | 3.04 | 3.10 | 2.58 |
| 13.7 ± 1.29 µM |  | 16 ± 3.2 µM | 15 ± 2.47 µM | CN(Cc1cnc2nc(N)nc(N)c2n1)c1ccc(C(=O)N[C@@H](CCC(=O)O)C(=O)O)cc1 [MTX, methotrexate, reference compound] | 42.9 ± 8.07 µM | 3.14 | 2.68 | 2.85 |
| 13.1 ± 3.02 µM | 200 to 202 °C | 32.2 ± 4.79 µM | 6.31 ± 0.79 µM | CCc1nccn1-c1ccc(NC(=O)CCC(=O)Nc2ccc(C)cc2)cc1 [Compound 4h] | 290 ± 26.6 µM | 22.10 | 9.00 | 45.94 |
| 11.6 ± 1.59 µM | 164 to 166 °C | 71.3 ± 9.13 µM | 12.5 ± 0.91 µM | CCc1nccn1-c1ccc(NC(=O)CCC(=O)NCc2ccc(C)cc2)cc1 [Compound 4o, 1-(4-(3-(4-Methylbenzylcarbamoyl)propionamide)phenyl)-2-ethylimidazole] |  |  |  |  |
| 10.6 ± 1.75 µM | 184 to 188 °C | 43.4 ± 5.42 µM | 13.3 ± 1.37 µM | CCc1nccn1-c1ccc(NC(=O)CCC(=O)Nc2ccc(Cl)cc2)cc1 [Compound 4e, 1-(4-(3-(4-Cl-Phenylcarbamoyl)propionamide)phenyl)-2-ethyl Imidazol] | 313 ± 18 µM | 29.48 | 7.22 | 23.58 |
| 8.39 ± 1.11 µM | 138 to 142 °C | 11 ± 1.31 µM | 7.04 ± 1.07 µM | CCc1nccn1-c1ccc(NC(=O)CCC(=O)NCc2ccc(Cl)cc2)cc1 [Compound 4l, 1-(4-(3-(4-Cl-Benzylcarbamoyl)propionamide)phenyl)-2-ethyl Imidazol] | 114 ± 16.7 µM | 13.53 | 10.36 | 16.13 |
| 2.96 ± 0.29 µM | 116 to 120 °C | 31.1 ± 3.81 µM | 4.91 ± 0.71 µM | CCc1nccn1-c1ccc(NC(=O)CCC(=O)NCc2ccccc2Cl)cc1 [Compound 4q] | > 500 µM | >168.92 |  |  |

— article PMC7570620, “Synthesis and Evaluation of the Antitumor Activity of Novel 1-(4-Substituted phenyl)-2-ethyl Imidazole Apoptosis Inducers In Vitro” (Molecules, 2020)
